{
  "source": "patent US20080234337A1",
  "about": "“Preventive and/or Remedy for Hyperkalemia Containing Ep4 Agonist” (ONO PHARMACEUTICAL CO., LTD., priority 2004, published 2008)",
  "biological_target": "T1, EP4 (Cavia porcellus, UniProt Q1HG69)",
  "T1 construct": "Tissue samples including submucosal ganglia and mucosa were obtained by removal of myenteric plexus; from tissue; host or cells: guinea pig distal colon (mucosa with submucosal ganglia), mounted in Ussing flux chambers",
  "T1 sequence (Q1HG69 1-487)": "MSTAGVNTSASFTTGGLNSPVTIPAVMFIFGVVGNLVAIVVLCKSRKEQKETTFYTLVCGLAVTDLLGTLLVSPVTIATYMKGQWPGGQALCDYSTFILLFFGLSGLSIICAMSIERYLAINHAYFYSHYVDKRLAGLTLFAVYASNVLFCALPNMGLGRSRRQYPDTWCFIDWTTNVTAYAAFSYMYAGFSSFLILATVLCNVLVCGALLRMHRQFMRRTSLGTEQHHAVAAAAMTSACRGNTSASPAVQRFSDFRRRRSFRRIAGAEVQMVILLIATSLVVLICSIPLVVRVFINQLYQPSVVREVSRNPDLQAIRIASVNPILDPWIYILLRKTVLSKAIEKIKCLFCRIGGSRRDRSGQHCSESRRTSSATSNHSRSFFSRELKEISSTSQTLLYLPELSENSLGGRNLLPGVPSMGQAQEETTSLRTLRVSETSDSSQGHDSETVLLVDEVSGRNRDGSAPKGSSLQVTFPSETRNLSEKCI",
  "assay": "Short-circuit current (Isc) measurement of colonic ion transport in guinea pig distal colon tissue using Ussing flux chamber (investigation of EP4 agonistic activity)",
  "type": "cell-based",
  "data": [
    {"smiles": "CCCCC[C@H](O)/C=C/[C@H]1[C@H](O)CC(=O)[C@@H]1C/C=C\\CCCC(=O)O", "note": "[PGE2]", "values": [
      {"measurement": "decrease of short-circuit current (Isc) in presence of EP4 antagonist", "setting": "PGE2 at low concentration plus EP4 antagonist (not named)", "result": "countered by EP4 antagonist"},
      {"measurement": "change of short-circuit current (Isc)", "setting": "added into serosal chamber at 10^-5 mol/L, tetrodotoxin and piroxicam pretreatment, FIG. 1", "result": "biphasic [Transient phase, Sustained Phase] change of short-circuit current (Isc)"},
      {"measurement": "change of short-circuit current (Isc)", "setting": "added into serosal chamber at 10^-6 mol/L, tetrodotoxin and piroxicam pretreatment, FIG. 1", "result": "temporary increase of Isc"},
      {"measurement": "change of short-circuit current (Isc)", "setting": "added into serosal chamber at from 10^-8 to 10^-7 mol/L, tetrodotoxin and piroxicam pretreatment, FIG. 1", "result": "decrease of Isc"},
      {"measurement": "change of short-circuit current (Isc)", "setting": "low concentration", "result": "decrease of short-circuit current (Isc)"},
      {"measurement": "potassium secretion (suggested by decrease of Isc)", "setting": "low concentration", "result": "promoted the potassium secretion"}
    ]},
    {"smiles": "COCc1cccc(C[C@H](O)/C=C/[C@H]2[C@H](O)CC(=O)[C@@H]2SCCCSCC(=O)O)c1", "note": "[compound 1, ({3-[((1R,2S,3R)-3-hydroxy-2-{(1E,3S)-3-hydroxy-4-[3-(methoxymethyl)phenyl]but-1-enyl}-5-oxocyclopentyl)sulfanyl]propyl}sulfanyl)acetic acid]", "values": [
      {"measurement": "change of short-circuit current (Isc)", "setting": "addition of test compound into serosal chamber, concentration not given, FIG. 3", "result": "decrease of short-circuit current (Isc)"}
    ]}
  ]
}
